According to patent US10022376B2 (Pfizer Inc., priority 2014, dated 2018):
Counter-ions that a name gives are not always drawn.

Columns and labels:
[1] = system: rhIFNγ stimulated STAT-3 phosphorylation in the A549 human epithelial cell line; assay: A549 Cell Assay: Inhibition of pSTAT3; type: cell-based; settings: Homo sapiens; A549 cells
Procedure, shortened: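 A549 cells cultured 18 h were preincubated 1 h at 37° C with compound (0.3 nM to 10 μM, 0.1% DMSO) in DMEM with 0.2% BSA, then stimulated with 20 ng/mL rhIFNγ for 30 min. pSTAT3 Tyr705 in the lysates was measured by MSD immunoassay and expressed as percent inhibition.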

[2] = system: rhIL-2 stimulated STAT5 phosphorylation in isolated human T cells; assay: Human T Cell Assay: Inhibition of pSTAT5; type: cell-based
Experimental: Human T Cell Assay: Inhibition of pSTAT5
An assay measuring the efficacy of JAK inhibitors on the functional response of recombinant human interleukin-2 (rhIL-2) stimulated STAT5 phosphorylation in isolated human T cells.
Human whole blood from individual donors was collected from the phlebotomy unit on-site. Peripheral venous blood (30-60 mL) from healthy volunteers of either sex was used as the source of T cells. T cell isolation from venous whole blood is routinely performed in a class II microbiological safety cabinet. Each sample was collected into between 3 and 6 10 mL Sodium Heparin Vacutainer tubes (BD #367874). The blood was poured into sterile 50 mL conicals (Corning #430828) and incubated with the T cell Rosette Sep Cocktail (Stemcell Technologies #15061) at 50 μL/mL antibody/blood ratio for 20 min. with shaking at room temperature. The blood/antibody mixture was then diluted 1:2 with PBS (Pfizer media prep)/2% FBS (Sigma #F4135) and 30 mL of the mixture was layered onto 15 mL Ficoll-Hypaque (GE Healthcare #17-1440-03) in 50 mL conical tubes. The tubes were then centrifuged at 1200×g for 20 min. at room temperature with no brake. Following centrifugation the T cells formed a buffy coat between the Ficoll-Hypaque and plasma layers. The plasma above the buffy coats was removed to within 5 mm of the buffy coat using a sterile Pasteur pipette. The buffy coats were then collected into fresh sterile 50 mL conical tubes containing 25 mL PBS/2% FBS (2 buffy coats per 50 mL conical). PBS/2% FBS was added to the buffy coat cells such that the final volume in the tube was 50 mL. The tubes were then centrifuged at 200×g for 15 min. at room temperature. The supernatant was discarded and the pellet re-suspended in 10-20 mL of DMEM (Pfizer media prep) Assay media/0.2% BSA (Miltenyi #130-091-376). A differential cell count was performed using a haemacytometer and cells were diluted to 1.1×10^6 T cells/ml in DMEM/0.2% BSA media. Compounds (10 mM-0.3 μM) were diluted with Hanks Balanced Salt Solution (HBSS) (Sigma #H6648) at 1:100 dilution. Immediately following cell isolation and compound dilution, 90 μl/well of T cells (˜1×10^6/ml) in assay medium (DMEM+0.2% BSA) was added to the VWR Deep well V bottom plate (#3906-520-300). 10 μl/well of compound (final concentration range of 10 μM-0.3 nM with 0.1% DMSO) or 0.1% DMSO in HBSS as controls was added to the appropriate wells. Plates were incubated for 1 hour at 37° C., 5% CO2 incubator. 10 μl of 3.3 μg/mL rhIL-2 (R&D Systems #202-IL) was added to the cells (300 ng/ml final assay concentration). Wells containing T cells, medium with 0.1% DMSO and no rhIL-2 were used as background controls. Plates were incubated for 15 min at 37° C. After rhIL-2 stimulation, 800 μL of cold PBS/0.1% BSA was added and the plates were centrifuged at 1400 rpm for 5 min at 4° C. Supernatant was aspirated and 100 μL of ice-cold MSD lysis buffer containing protease and phosphatase inhibitors from Phospho-STAT5a/b Tyr694 assay kit (Meso-Scale Discovery #K150IGD) was added to the cell pellet. Plates were shaken for 30 min. at 4° C. and then frozen overnight. The following day, cell lysates were assayed using the MSD ELISA kit protocol for detection of pSTAT5.
Data were collected and transformed into percent inhibition and calculated using the following formula: […]

SMILES	IC50 [1]	IC50 [2]
CCc1cc(O)c(F)cc1-c1cc2[nH]nc(C(=O)NC)c2c(NCc2ccccc2N(C)S(C)(=O)=O)n1 [Example 19, 6-(2-ethyl-5-fluoro-4-hydroxyphenyl)-N-methyl-4-({2-[methyl(methylsulfonyl)amino]benzyl}amino)-1H-pyrazolo[4,3-c]pyridine-3-carboxamide]	11.9 nM	20.2 nM
CCc1cc(O)c(F)cc1-c1cc2[nH]nc(C(=O)NC)c2c(NCc2cc(O)ccc2N(C)S(C)(=O)=O)n1 [Example 31, 6-(2-Ethyl-5-fluoro-4-hydroxyphenyl)-4-({5-hydroxy-2-[methyl (methylsulfonyl)amino]benzyl}amino)-N-methyl-1H-pyrazolo[4,3-c]pyridine-3-carboxamide]	74 nM	48.2 nM
CCc1cc(O)c(F)cc1-c1cc2[nH]nc(C(=O)Nc3ccc(C)nc3)c2c(NCc2ccccc2N(C)S(C)(=O)=O)n1 [Example 56, 6-(2-ethyl-5-fluoro-4-hydroxyphenyl)-4-({2-[methyl(methylsulfonyl)amino]benzyl}amino)-N-(6-methylpyridin-3-yl)-1H-pyrazolo[4,3-c]pyridine-3-carboxamide]	277 nM	53.4 nM
Cc1ccc(NC(=O)c2n[nH]c3cc(-c4cc(F)c(O)cc4CC(F)(F)F)nc(NCc4ccccc4N(C)S(C)(=O)=O)c23)cn1 [Example 76, 6-[5-Fluoro-4-hydroxy-2-(2,2,2-trifluoroethyl)phenyl]-4-({2-[methyl(methylsulfonyl)amino]-benzyl}amino)-N-(6-methylpyridin-3-yl)-1H-pyrazolo[4,3-c]pyridine-3-carboxamide]	325 nM	121 nM
CN(c1ccccc1CNc1nc(-c2cc(F)c(O)cc2CC(F)(F)F)cc2[nH]nc(C(N)=O)c12)S(C)(=O)=O [Example 77, 6-[5-Fluoro-4-hydroxy-2-(2,2,2-trifluoroethyl)phenyl]-4-({2-[methyl(methylsulfonyl)amino]benzyl}amino)-1H-pyrazolo[4,3-c]pyridine-3-carboxamide]	32.9 nM	59.9 nM
CN(c1ccc(O)cc1CNc1nc(-c2cc(F)c(O)cc2CC(F)(F)F)cc2[nH]nc(C(N)=O)c12)S(C)(=O)=O [Example 92, 6-[5-Fluoro-4-hydroxy-2-(2,2,2-trifluoroethyl)phenyl]-4-({5-hydroxy-2-[methyl(methylsulfonyl)amino]benzyl}amino)-1H-pyrazolo[4,3-c]pyridine-3-carboxamide]	398 nM	343 nM
CCc1cc(O)c(F)cc1-c1nc(NCc2ccccc2N(C)S(C)(=O)=O)c2c(C(=O)NC)n[nH]c2n1 [Example 93, 6-(2-Ethyl-5-fluoro-4-hydroxyphenyl)-N-methyl-4-((2-(N-methylmethylsulfonamido)benzyl)amino)-1H-pyrazolo[3,4-d]pyrimidine-3-carboxamide]	31.9 nM	40.4 nM
CN(c1ccccc1CNc1nc(-c2cc(F)c(O)cc2CC(F)(F)F)nc2[nH]nc(C(N)=O)c12)S(C)(=O)=O [Example 98, 6-(5-Fluoro-4-hydroxy-2-(2,2,2-trifluoroethyl)phenyl)-4-((2-(N-methylmethylsulfonamido)benzyl)amino)-1H-pyrazolo[3,4-d]pyrimidine-3-carboxamide]	724 nM	324 nM
CCc1cc(O)c(F)cc1-c1cc2[nH]ncc2c(NCc2ccccc2N(C)S(C)(=O)=O)n1 [Example 131, N-[2-({[6-(2-Ethyl-5-fluoro-4-hydroxyphenyl)-1H-pyrazolo[4,3-c]pyridin-4-yl]amino}methyl)phenyl]-N-methylmethanesulfonamide]	7.4 nM	24.3 nM
CCc1cc(O)c(F)cc1-c1cc2[nH]ncc2c(NCc2cc(C)ccc2N(C)S(C)(=O)=O)n1 [Example 132, N-[2-({[6-(2-ethyl-5-fluoro-4-hydroxyphenyl)-1H-pyrazolo[4,3-c]pyridin-4-yl]amino}methyl)-4-methylphenyl]-N-methylmethanesulfonamide hydrochloride]	256 nM	206 nM
CCc1cc(O)c(F)cc1-c1cc2[nH]ncc2c(NCc2cc(Cl)ccc2N(C)S(C)(=O)=O)n1 [Example 133, N-[4-chloro-2-({[6-(2-ethyl-5-fluoro-4-hydroxyphenyl)-1H-pyrazolo[4,3-c]pyridin-4-yl]amino}methyl)phenyl]-N-methylmethanesulfonamide hydrochloride]	10.1 nM	34.7 nM
CCc1cc(O)c(F)cc1-c1cc2[nH]ncc2c(NCc2c(F)cccc2N(C)S(C)(=O)=O)n1 [Example 134, N-[2-({[6-(2-ethyl-5-fluoro-4-hydroxyphenyl)-1H-pyrazolo[4,3-c]pyridin-4-yl]amino}methyl)-3-fluorophenyl]-N-methylmethanesulfonamide hydrochloride]	–	259 nM
CCc1cc(O)c(F)cc1-c1cc2[nH]ncc2c(N(C)Cc2ccccc2N(CC)S(C)(=O)=O)n1 [Example 145, N-Ethyl-N-[2-({[6-(2-ethyl-5-fluoro-4-hydroxyphenyl)-1H-pyrazolo[4,3-c]pyridin-4-yl](methyl)amino}methyl)phenyl]methanesulfonamide hydrochloride]	15.7 nM	157 nM
CCc1cc(O)c(F)cc1-c1cc2[nH]ncc2c(N(C)Cc2ccccc2N(C)S(C)(=O)=O)n1 [Example 146, N-[2-({[6-(2-Ethyl-5-fluoro-4-hydroxyphenyl)-1H-pyrazolo[4,3-c]pyridin-4-yl](methyl)amino}methyl)phenyl]-N-methylmethanesulfonamide hydrochloride]	7.6 nM	62.3 nM
CCc1cc(O)c(F)cc1-c1cc2[nH]nc(-c3nnc(C)[nH]3)c2c(NCc2ccccc2N(C)S(C)(=O)=O)n1 [Example 165, N-[2-({[6-(2-Ethyl-5-fluoro-4-hydroxyphenyl)-3-(5-methyl-4H-1,2,4-triazol-3-yl)-1H-pyrazolo[4,3-c]pyridin-4-yl]amino}methyl)phenyl]-N-methylmethanesulfonamide]	567 nM	91.3 nM
Cc1ccc(-c2nnc(-c3n[nH]c4cc(-c5cc(F)c(O)cc5CC(F)(F)F)nc(NCc5ccccc5N(C)S(C)(=O)=O)c34)[nH]2)cn1 [Example 166, N-{2-[({6-[5-Fluoro-4-hydroxy-2-(2,2,2-trifluoroethyl)phenyl]-3-[5-(6-methylpyridin-3-yl)-4H-1,2,4-triazol-3-yl]-1H-pyrazolo[4,3-c]pyridin-4-yl}amino)methyl]phenyl}-N-methylmethanesulfonamide]	697 nM	591 nM
CC(=O)N1CCc2[nH]c(-c3n[nH]c4nc(-c5cc(F)c(O)cc5CC(F)(F)F)nc(NCc5cc(O)ccc5N(C)S(C)(=O)=O)c34)nc2C1 [Example 170, N-{2-[({3-(5-Acetyl-4,5,6,7-tetrahydro-1H-imidazo[4,5-c]pyridin-2-yl)-6-[5-fluoro-4-hydroxy-2-(2,2,2-trifluoroethyl)phenyl]-1H-pyrazolo[3,4-d]pyrimidin-4-yl}amino)methyl]-4-hydroxyphenyl}-N-methylmethanesulfonamide]	1360 nM	767 nM
